# Data reported in patent US12448394B2, “Heterocyclic pyrazole derivatives as type III receptor tyrosine kinase inhibitors” (DEVELOPMENT CENTER FOR BIOTECHNOLOGY, priority 2019, dated 2025).
# Molecular target: T1, FLT3 kinase (Homo sapiens, UniProt P36888)
# T1 construct: purchased SignalChem
# T1 sequence (P36888 27-993): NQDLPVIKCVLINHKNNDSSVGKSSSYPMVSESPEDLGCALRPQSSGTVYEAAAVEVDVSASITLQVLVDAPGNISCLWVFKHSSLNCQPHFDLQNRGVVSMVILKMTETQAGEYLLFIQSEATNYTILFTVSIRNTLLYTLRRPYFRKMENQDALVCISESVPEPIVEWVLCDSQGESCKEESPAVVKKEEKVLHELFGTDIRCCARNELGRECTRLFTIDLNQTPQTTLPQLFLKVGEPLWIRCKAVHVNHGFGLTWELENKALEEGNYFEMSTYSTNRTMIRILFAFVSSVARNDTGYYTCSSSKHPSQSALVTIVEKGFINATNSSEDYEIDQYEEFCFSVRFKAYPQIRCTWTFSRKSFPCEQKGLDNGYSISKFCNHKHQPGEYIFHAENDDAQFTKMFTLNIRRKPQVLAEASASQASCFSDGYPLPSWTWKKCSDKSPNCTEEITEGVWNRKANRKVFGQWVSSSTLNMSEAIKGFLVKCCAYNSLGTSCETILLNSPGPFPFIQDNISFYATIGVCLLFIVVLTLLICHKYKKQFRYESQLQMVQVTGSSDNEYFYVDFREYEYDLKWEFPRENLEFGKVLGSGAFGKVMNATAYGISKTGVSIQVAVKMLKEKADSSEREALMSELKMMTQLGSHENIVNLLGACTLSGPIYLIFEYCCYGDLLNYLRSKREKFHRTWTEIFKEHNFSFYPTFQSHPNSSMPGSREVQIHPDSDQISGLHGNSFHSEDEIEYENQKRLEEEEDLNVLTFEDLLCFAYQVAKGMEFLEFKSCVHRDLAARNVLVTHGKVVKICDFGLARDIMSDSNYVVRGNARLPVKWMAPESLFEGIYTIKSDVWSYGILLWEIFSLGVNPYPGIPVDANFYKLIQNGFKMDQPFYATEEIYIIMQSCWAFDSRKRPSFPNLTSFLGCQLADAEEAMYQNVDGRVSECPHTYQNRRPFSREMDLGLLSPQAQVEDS
# Test: FLT3 kinase assay (AlphaScreen)
# Assay type: biochemical
# Details: read-out: Ranking of IC50 values, FLT3
# Summary of the method: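 Recombinant FLT3 (1.5 ng) phosphorylated biotinylated poly(Glu4:Tyr1) with 10 μM ATP in MOPS pH 7.0 buffer containing 10 mM MgCl2, 30 min at 30 °C, stopped with EDTA. Product detected by AlphaScreen; IC50 from duplicate serial dilutions.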
row,IC50 [nM],Structure (SMILES)
1,< 1,"Cn1ncc2ccc(-c3n[nH]c4c3Cc3sc(-c5cncc(C(=O)N6CCOCC6)c5)cc3-4)cc21 [Compound 31, (5-(3-(1-methyl-1H-indazol-6-yl)-1,4-dihydrothieno[2′,3′:4,5]cyclopenta[1,2-c]pyrazol-6-yl)pyridin-3-yl) (morpholino)methanone]"
2,< 1,"Cc1ccc(-c2cc3c(s2)Cc2c(-c4ccc5cnn(C)c5c4)n[nH]c2-3)cn1 [Compound 33, 3-(1-methyl-1H-indazol-6-yl)-6-(6-methylpyridin-3-yl)-1,4-dihydrothieno [2′,3′:4,5]cyclopenta [1,2-c]pyrazole]"
3,1 to 10,"Cn1ncc2ccc(-c3n[nH]c4c3Cc3sc(-c5ccc(C(=O)N6CCCCC6)cc5)cc3-4)cc21 [Compound 34, (4-(3-(1-methyl-1H-indazol-6-yl)-1,4-dihydro-thieno[2′,3′:4,5]cyclopenta [1,2-c]pyrazol-6-yl)phenyl)(piperidin-1-yl) methanone]"
4,1 to 10,"CC(C)Cn1ncc2ccc(-c3n[nH]c4c3Cc3sc(-c5ccc(CN6CCOCC6)cc5)cc3-4)cc21 [Compound 35, 4-(4-(3-(1-isobutyl-1H-indazol-6-yl)-1,4-dihydro-thieno[2′,3′:4,5]cyclopenta [1,2-c]pyrazol-6-yl)benzyl)morpholine]"
5,< 1,"Cn1ncc2ccc(-c3n[nH]c4c3Cc3sc(-c5cnc(C(=O)N6CCOCC6)nc5)cc3-4)cc21 [Compound 41, (5-(3-(1-methyl-1H-indazol-6-yl)-1,4-dihydrothieno[2′,3′:4,5]cyclopenta[1,2-c]pyrazol-6-yl)pyrimidin-2-yl) (morpholino)methanone]"
6,< 1,"Cn1ncc2ccc(-c3n[nH]c4c3Cc3sc(-c5ccc(C(=O)N6CCOCC6)c(F)c5)cc3-4)cc21 [Compound 44, (2-fluoro-4-(3-(1-methyl-1H-indazol-6-yl)-1,4-dihydrothieno[2′,3′:4,5]cyclopenta[1,2-c]pyrazol-6-yl)phenyl)(morpholino) methanone]"
7,< 1,"Cn1cc(-c2cc3c(s2)Cc2c(-c4ccc5cnn(C)c5c4)n[nH]c2-3)cc1C(=O)N1CCOCC1 [Compound 46, (1-methyl-4-(3-(1-methyl-1H-indazol-6-yl)-1,4-dihydrothieno[2′,3′:4,5]cyclopenta[1,2-c]pyrazol-6-yl)-1H-pyrrol-2-yl) (morpholino)methanone]"
8,< 1,"Cn1ncc2ccc(-c3n[nH]c4c3Cc3sc(-c5csc(C(=O)N6CCOCC6)c5)cc3-4)cc21 [Compound 48, (4-(3-(1-methyl-1H-indazol-6-yl)-1,4-dihydro-thieno[2′,3′:4,5]cyclopenta [1,2-c]pyrazol-6-yl)thiophen-2-yl) (morpholino)methanone]"

# Continued, molecule first:
row,Structure (SMILES),IC50 [nM]
1,"Cn1ncc2ccc(-c3n[nH]c4c3Cc3sc(-c5ccc(CN6CCOCC6)c(C(F)(F)F)c5)cc3-4)cc21 [Compound 27, 4-(4-(3-(1-methyl-1H-indazol-6-yl)-1,4-dihydrothieno[2′,3′:4,5]cyclopenta[1,2-c]pyrazol-6-yl)-2-(trifluoromethyl)benzyl)morpholine]",1 to 10
2,"CCC(c1ccc(-c2cc3c(s2)Cc2c(-c4ccc5cnn(C)c5c4)n[nH]c2-3)cc1)N1CCOCC1 (stereo not shown) [Compound 28, 4-(1-(4-(3-(1-methyl-1H-indazol-6-yl)-1,4-dihydro-thieno[2′,3′:4,5]cyclopenta [1,2-c]pyrazol-6-yl)phenyl)propyl)morpholine]",1 to 10
3,"COc1cc(CN2CCOCC2)ccc1-c1cc2c(s1)Cc1c(-c3ccc4cnn(C)c4c3)n[nH]c1-2 [Compound 29, 4-(3-methoxy-4-(3-(1-methyl-1H-indazol-6-yl)-1,4-dihydrothieno [2′,3′:4,5]cyclopenta[1,2-c]pyrazol-6-yl)benzyl) morpholine]",< 1
4,"Cn1ncc2ccc(-c3n[nH]c4c3Cc3sc(-c5ccc(CN6CCOCC6)cc5F)cc3-4)cc21 [Compound 32, 4-(3-fluoro-4-(3-(1-methyl-1H-indazol-6-yl)-1,4-dihydrothieno [2′,3′:4,5]cyclopenta [1,2-c]pyrazol-6-yl)benzyl)morpholine]",< 1
5,"Cn1ncc2ccc(-c3n[nH]c4c3Cc3sc(-c5cccc(C(=O)N6CCOCC6)c5)cc3-4)cc21 [Compound 37, (3-(3-(1-methyl-1H-indazol-6-yl)-1,4-dihydro-thieno[2′,3′:4,5]cyclopenta [1,2-c]pyrazol-6-yl)phenyl)(morpholino) methanone]",1 to 10
6,"Cn1ncc2ccc(-c3n[nH]c4c3Cc3sc(-c5ccc(C(=O)N6CCCC6)cc5)cc3-4)cc21 [Compound 38, (4-(3-(1-methyl-1H-indazol-6-yl)-1,4-dihydro-thieno[2′,3′:4,5]cyclopenta [1,2-c]pyrazol-6-yl)phenyl)(pyrrolidin-1-yl) methanone]",1 to 10
7,"Cn1ncc2ccc(-c3n[nH]c4c3Cc3sc(-c5ccc(CN6CCSCC6)cc5)cc3-4)cc21 [Compound 39, 3-(1-methyl-1H-indazol-6-yl)-6-(4-(thiomorpho-linomethyl)phenyl)-1,4-dihydrothieno[2′,3′:4,5] cyclopenta[1,2-c]pyrazole]",1 to 10
8,"CC(C)n1ncc2ccc(-c3n[nH]c4c3Cc3sc(-c5ccc(CN6CCOCC6)cc5)cc3-4)cc21 [Compound 42, 4-(4-(3-(1-isopropyl-1H-indazol-6-yl)-1,4-dihydro-thieno[2′,3′:4,5]cyclopenta [1,2-c]pyrazol-6-yl)benzyl)morpholine]",< 1
9,"COc1cc(-c2cc3c(s2)Cc2c(-c4ccc5cnn(C)c5c4)n[nH]c2-3)ccc1C(=O)N1CCOCC1 [Compound 43, (2-methoxy-4-(3-(1-methyl-1H-indazol-6-yl)-1,4-dihydrothieno [2′,3′:4,5]cyclopenta [1,2-c]pyrazol-6-yl)phenyl)(morpholino) methanone]",1 to 10
10,"Cn1ncc2ccc(-c3n[nH]c4c3Cc3sc(-c5cnc(N)nc5)cc3-4)cc21 [Compound 45, 5-(3-(1-methyl-1H-indazol-6-yl)-1,4-dihydrothieno [2′,3′:4,5]cyclopenta[l,2-c]pyrazol-6-yl)pyrimidin-2-amine]",< 1
11,"Cn1ncc2ccc(-c3n[nH]c4c3Cc3sc(-c5ccc(S(=O)(=O)N6CCOCC6)cc5)cc3-4)cc21 [Compound 47, 4-((4-(3-(1-methyl-1H-indazol-6-yl)-1,4-dihydro-thieno[2′,3′:4,5]cyclopenta [1,2-c]pyrazol-6-yl)phenyl)sulfonyl) morpholine]",< 1
12,"CN(C)C(=O)c1ccc(-c2cc3c(s2)Cc2c(-c4ccc5cnn(C)c5c4)n[nH]c2-3)cc1 [Compound 49, N,N-dimethyl-4-(3-(1-methyl-1H-indazol-6-yl)-1,4-dihydrothieno [2′,3′:4,5]cyclopenta [1,2-c]pyrazol-6-yl) benzamide]",< 1
13,"CN(C)S(=O)(=O)c1ccc(-c2cc3c(s2)Cc2c(-c4ccc5cnn(C)c5c4)n[nH]c2-3)cc1 [Compound 50, N,N-dimethyl-4-(3-(1-methyl-1H-indazol-6-yl)-1,4-dihydrothieno [2′,3′:4,5]cyclopenta [1,2-c]pyrazol-6-yl) benzenesulfonamide]",< 1
14,"Cn1ncc2ccc(-c3n[nH]c4c3Cc3sc(-c5ccc(CN6CCOCC6)s5)cc3-4)cc21 [Compound 51, 4-((5-(3-(1-methyl-1H-indazol-6-yl)-1,4-dihydro-thieno[2′,3′:4,5]cyclopenta [1,2-c]pyrazol-6-yl)thiophen-2-yl)methyl) morpholine]",< 1
